Assay results reported in patent publication EP3575287A1, “INHIBITORS OF N-ACYLPHOSPHATIDYLETHANOLAMINE PHOSPHOLIPASE D (NAPE-PLD)” (Universiteit Leiden, priority 2018, dated 2019).

Biological target: T1, human NAPE-PLD (Homo sapiens, UniProt Q6IQ20)
T1 construct: Full length human cDNA NAPE-PLD was obtained from Natsuo Ueda; made in house; host or cells: HEK293T cells, transient transfection (pcDNA3.1); membrane fraction used
Test: In vitro NAPE-PLD activity assay
Format: biochemical
Settings: membrane protein fraction of HEK293T cells overexpressing human NAPE-PLD; substrate PED6 1 µM; 30 minutes preincubation at 37 °C
Description: Full length human cDNA NAPE-PLD was obtained from Natsuo Ueda^1 and cloned into mammalian expression vector pcDNA3.1, containing a C-terminal Flag-tag and genes for ampicillin and neomycin resistance. All plasmids were grown in XL-10 Z-competent cells and prepped (Maxi Prep, Qiagen). Sequence analysis for the confirmation of the sequences was performed at the Leiden Genome Technology Centre.
HEK293T were cultured at 37 °C and 7% CO2 in DMEM (Sigma Aldrich, D6546) with glutamax, penicillin (100 µg/ml), streptomycin (100 µg/ml) and 10% New Born Calf Serum iron supplemented (Hyclone SH30072.03). Cells were passaged twice a week to appropriate confluence.
24 hours before transfection 10^7 cells are seeded on a 15 cm dish. Two hours before transfection medium is refreshed, low volume. Transfection is performed with PEI in a ratio of 3:1 with human NAPE-PLD or Mock pcDNA3.1 Neo, 20 µg per dish. Medium is refreshed after 24 hours and cells are harvested after 72 hours.
Cell pellets are re-suspended in lysis buffer: 20 mM Hepes, 2 mM DTT, 0.25 M sucrose, 1 mM MgCl2, 2.5 U/ml benzonase and incubated 30 minutes on ice. The cytosolic fraction (supernatant) is separated from the membranes by ultra-centrifugation (32000 rpm for 30 minutes 100,000g). The pellet is resuspended in storage buffer: 20 mM Hepes, 2 mM DTT (membrane fraction). All samples are stored at -80°C. Enzyme concentrations are determined using a Bradford assay.
The NAPE-PLD activity assay is based on a previously reported method with small alterations.^2 The membrane protein fraction from transient overexpression of human NAPE-PLD in HEK293T cells was diluted to 0.4 mg/ml in assay buffer: 50 mM Tris-HCl (pH 7.5), 0.02% Triton X-100, 150 mM NaCl. The substrate PED6 (Invitrogen) 1 mM stock was consecutively diluted in DMSO (10x) and in assay buffer (10x) to make a 10 µM working solution. […] The assay is performed in a dark Greiner 96 wells plate, end volume 100 µl. The compound or DMSO is incubated with membrane protein lysate (final concentration 0.04 mg/ml) for 30 minutes at 37 °C. […] Mock lysate with DMSO is used for background substraction. IC50 curves are generated used Graphpad Prism v6.

T1 sequence (Q6IQ20 whole entry): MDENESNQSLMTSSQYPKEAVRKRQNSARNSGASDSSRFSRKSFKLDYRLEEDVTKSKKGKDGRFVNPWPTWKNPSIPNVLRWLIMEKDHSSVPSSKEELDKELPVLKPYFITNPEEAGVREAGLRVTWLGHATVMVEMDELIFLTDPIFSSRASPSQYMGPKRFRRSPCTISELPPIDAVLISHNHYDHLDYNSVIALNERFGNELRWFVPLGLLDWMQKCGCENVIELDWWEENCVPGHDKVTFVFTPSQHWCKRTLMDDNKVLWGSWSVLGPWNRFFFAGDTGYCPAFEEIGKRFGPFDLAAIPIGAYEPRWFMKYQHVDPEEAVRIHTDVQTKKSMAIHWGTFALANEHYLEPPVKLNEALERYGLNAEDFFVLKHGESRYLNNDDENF

Row | Compound | IC50 [nM]
1 | Cc1ccc(CCN(C)c2nc(C(=O)NCC3CC3)cc(N3CCOCC3)n2)cc1 [Example 69, N-(cyclopropylmethyl)-2-(methyl(4-methylphenethyl)amino)-6-morpholinopyrimidine-4-carboxamide] | 1820
2 | O=C(NCC1CC1)c1cc(N2CCOCC2)nc(N(CCc2ccccc2)C2CC2)n1 [Example 70, 2-(cyclopropyl(phenethyl)amino)-N-(cyclopropylmethyl)-6-morpholinopyrimidine-4-carboxamide] | 1100
3 | CN(CCc1ccccc1-c1ccccc1)c1nc(C(=O)NCC2CC2)cc(N2CCOCC2)n1 [Example 71, 2-((2-([1,1'-biphenyl]-2-yl)ethyl)(methyl)amino)-N-(cyclopropylmethyl)-6-morpholino-pyrimidine-4-carboxamide] | 490
4 | CCN(CCc1ccccc1)c1nc(C(=O)NCC2CC2)cc(N2CCOCC2)n1 [Example 72, N-(cyclopropylmethyl)-2-(ethyl(phenethyl)amino)-6-morpholinopyrimidine-4-carboxamide] | 646
5 | COc1ccc(CC2CCCCN2c2nc(C(=O)NCC3CC3)cc(N3CCOCC3)n2)cc1 (stereo not drawn) [Example 73, N-(cyclopropylmethyl)-2-(2-(4-methoxybenzyl)piperidin-1-yl)-6-morpholinopyrimidine-4-carboxamide] | 2570
6 | O=C(NCC1CC1)c1cc(N2CCOCC2)nc(N2CCN(C(=O)OCc3ccccc3)C(c3ccccc3)C2)n1 (stereo not drawn) [Example 74, benzyl 4-(4-((cyclopropylmethyl)carbamoyl)-6-morpholinopyrimidin-2-yl)-2-phenylpiperazine-1-carboxylate] | 3240
7 | CN(CCc1ccccc1)c1cc(C(=O)NCC2CC2)cc(N2CCOCC2)n1 [Example 75, N-(cyclopropylmethyl)-2-(methyl(phenethyl)amino)-6-morpholino isonicotinamide] | 1450
8 | CN(C)c1cc(C(=O)NCC2CC2)nc(N(C)CCc2ccccc2)n1 [Example 76, N-(cyclopropylmethyl)-6-(dimethylamino)-2-(methyl(phenethyl)amino)pyrimidine-4-carboxamide] | 288
9 | O=C(NCC1CC1)c1cc(N2CCOCC2)nc(N(CCc2ccccc2)c2ccccc2)n1 [Example 77, N-(cyclopropylmethyl)-6-morpholino-2-(phenethyl(phenyl)amino)pyrimidine-4-carboxamide] | 501
10 | Cc1ccccc1CCN(C)c1nc(C(=O)NCC2CC2)cc(N2CCOCC2)n1 [Example 78, N-(cyclopropylmethyl)-2-(methyl(2-methylphenethyl)amino)-6-morpholinopyrimidine-4-carboxamide] | 891
11 | CN(CCc1ccccc1)c1cc(N2CCOCC2)cc(C(=O)NCC2CC2)n1 [Example 79, N-(cyclopropylmethyl)-6-(methyl(phenethyl)amino)-4-morpholinopicolinamide] | 10500
12 | CN(CCc1cccnc1)c1nc(C(=O)NCC2CC2)cc(N2CCOCC2)n1 [Example 80, N-(cyclopropylmethyl)-2-(methyl(2-(pyridin-3-yl)ethyl)amino)-6-morpholinopyrimidine-4-carboxamide] | 10700
13 | CN(CCc1ccncc1)c1nc(C(=O)NCC2CC2)cc(N2CCOCC2)n1 [Example 81, N-(cyclopropylmethyl)-2-(methyl(2-(pyridin-4-yl)ethyl)amino)-6-morpholinopyrimidine-4-carboxamide] | 11500
14 | O=C(NCC1CC1)c1cc(N2CCOCC2)nc(N2CCNC(c3ccccc3)C2)n1 (stereo not drawn) [Example 82, N-(cyclopropylmethyl)-6-morpholino-2-(3-phenylpiperazin-1-yl)pyrimidine-4-carboxamide] | 7760
15 | COc1ccccc1CCN(C)c1nc(C(=O)NCC2CC2)cc(N2CCOCC2)n1 [Example 83, N-(cyclopropylmethyl)-2-((2-methoxyphenethyl)(methyl)amino)-6-morpholinopyrimidine-4-carboxamide] | 776
16 | CN(CCc1ccccn1)c1nc(C(=O)NCC2CC2)cc(N2CCOCC2)n1 [Example 84, N-(cyclopropylmethyl)-2-(methyl(2-(pyridin-2-yl)ethyl)amino)-6-morpholinopyrimidine-4-carboxamide] | 12900
17 | CN(CCc1ccccc1)c1nc(C(=O)NCC2CC2)cc(N2CCCC(F)(F)C2)n1 [Example 86, N-(cyclopropylmethyl)-6-(3,3-difluoropiperidin-1-yl)-2-(methyl(phenethyl)amino)pyrimidine-4-carboxamide] | 389
18 | CN(CCc1ccccc1)c1nc(Oc2ccccc2)cc(C(=O)NCC2CC2)n1 [Example 87, N-(cyclopropylmethyl)-2-(methyl(phenethyl)amino)-6-phenoxypyrimidine-4-carboxamide] | 11200
